Laboratory results reported in US20230322657A1, “CRYSTALLINE EDG-2 RECEPTOR ANTAGONIST AND METHODS OF MAKING” (Sanofi, priority 2020, published 2023).
In brackets after ≈: the same amount, converted by molar mass. One block for each compound: values may come before it.

Columns and labels:
[1] = Slurry stability study at room temperature (25° C.), 4 weeks, analysis by FTIR; type: physicochemical; settings: for Final form after slurry: 25° C., 4 weeks, FTIR
Protocol: Slurry stability Maturation studies were initially conducted for the purpose of identifying the most […] stable form at room temperature (25° C.
In this set of experiments, both the individual forms and mixtures of forms were slurried in several solvents for 4 weeks, then filtered and analyzed to determine the resulting form. The first set of experiments included pure Form 1, Form 2, Form 3, and mixtures of these forms in equal amounts. The solvents included methanol, ethyl acetate, MEK, and methyl THF in order to investigate a range of solvent polarity. Additional experiments were conducted with a mixture of Form 1 and Form 4 in MEK and methanol.
Analysis was performed by FTIR due to ease of analysis for small quantities. It is interesting to note that the acid carbonyl is shifted to a different location for each polymorph. The results for the first set of experiments are listed below, comparing the starting form with the final form.

[2] = Dynamic vapor sorption (DVS); type: physicochemical; settings: 25° C.
Protocol: Moisture sorption/desorption isotherms are recorded on a DVS-1 from SURFACE MEASUREMENT SYSTEMS. Two cycles are run at 25° C., in which the Relative Humidity (RH) is stepped from 0 to 95% and back to 0%. The data is evaluated with the software DVSWin V. 2.15.

[3] = Solubility of polymorphs at pH 7.4 in phosphate buffer at 25° C.; type: physicochemical; settings: pH 7.4 phosphate buffer; for Solubility, concentration (equilibrium): 24 hr
Protocol: The solubility of the different polymorphs was determined at pH 7.4 in phosphate buffer at 25° C. Samples were analyzed as a function of time for each form to determine the equilibrium values. The residual solids from each sample were analyzed to verify that the form was unchanged during the experiment. The concentration (mg/mL) versus time data is listed below for each form: […]

[4] = Estimated hot solubility in solvents at elevated temperature (approximately solvent boiling point); type: physicochemical
Protocol: Compound I was dissolved in a variety of solvents at elevated temperature (approximately at solvent boiling point) to provide solutions of Compound I with a maximum concentration of 15 mg/mL. The input material in these experiments was a mixture of polymorphic forms 1, 2, and 3.
When concentrations of Compound I was greater than 2 mg/mL, the solutions were filtered and evaporated at 25° C. to isolate the solid.

[5] = test system: patients with diffuse cutaneous systemic sclerosis SSc (dcSSc); settings: cited from earlier work
[6] = test system: mouse model of skin fibrosis; settings: cited from earlier work
[7] = Slurry conversion study at 40-70° C., Form 1/Form 2 1:1 mixture; type: physicochemical
Protocol: Slurry converstion studies were also conducted at 40-70° C. with Forms 1 and 2 to determine a transition temperature between the forms. A mixture of Form 1 and Form 2 at a (1:1 ratio) was slurried at 40° C., 50° C., 60° C., and 70° C. in two different solvents at each temperature and then analyzed to determine the direction of transformation. At 40° C. and 50° C., Methanol and MEK were used. At 60° C. and 70° C. MEK and 1-Pentanol were used.

Final form after slurry ([1]; MEK): Form 1 | Final form after slurry ([1]; Methanol): Form 1 | Final form after slurry ([1]; Methyl THF): Form 1
SMILES: COc1ccc(C(=O)NC2(C(=O)O)Cc3ccccc3C2)cc1OCCc1cccc(C)c1 [Forms 1, 2, 3]

Final form after slurry ([1]; MEK): Form 1 | Final form after slurry ([1]; Methanol): Form 1
SMILES: COc1ccc(C(=O)NC2(C(=O)O)Cc3ccccc3C2)cc1OCCc1cccc(C)c1 [mixtures of Form 4 and Form 1]

Reversible water uptake (bound) [2]: less than 1% | Reversible water uptake ([2]; between 0 and 95% RH): ~−0.1 % w/w | Final form after slurry ([1]; Ethyl Acetate): Form 1 | Final form after slurry ([1]; MEK): Form 1 | Final form after slurry ([1]; Methanol): Form 1 | Final form after slurry ([1]; Methyl THF): Form 1 | Relative stability of the crystal forms ([1]; room temperature (25° C.)): most stable form
SMILES: COc1ccc(C(=O)NC2(C(=O)O)Cc3ccccc3C2)cc1OCCc1cccc(C)c1 [Form 1, 2-(4-methoxy-3-(3-methylphenethoxy)benzamido)-2,3-dihydro-1H-indene-2-carboxylic acid]

Equilibrium solubility at 24 hours compared with Form 1 [3]: more than double | Solubility, concentration (equilibrium) [3]: 97 µg/mL (≈ 218 µM) | Final form after slurry ([1]; Ethyl Acetate): Form 1 | Final form after slurry ([1]; MEK): Form 1 | Final form after slurry ([1]; Methanol): Form 1 | Final form after slurry ([1]; Methyl THF): Form 1
SMILES: COc1ccc(C(=O)NC2(C(=O)O)Cc3ccccc3C2)cc1OCCc1cccc(C)c1 [Form 3, 2-(4-methoxy-3-(3-methylphenethoxy)benzamido)-2,3-dihydro-1H-indene-2-carboxylic acid]

Hot Solubility (est) ([4]; 1-Butanol): >10000 µg/mL | Hot Solubility (est) ([4]; 1-Pentanol): >10000 µg/mL | Hot Solubility (est) ([4]; Acetone): >10000 µg/mL | Hot Solubility (est) ([4]; Ethanol): >10000 µg/mL | Hot Solubility (est) ([4]; Hexane): <2000 µg/mL | Hot Solubility (est) ([4]; Isobutyl Alcohol): >10000 µg/mL | Hot Solubility (est) ([4]; Methanol): >10000 µg/mL | Hot Solubility (est) ([4]; Water): <2000 µg/mL
SMILES: COc1ccc(C(=O)NC2(C(=O)O)Cc3ccccc3C2)cc1OCCc1cccc(C)c1 [Compound I, 2-(4-methoxy-3-(3-methylphenethoxy)benzamido)-2,3-dihydro-1H-indene-2-carboxylic acid]
Outcome measures [5]: improved | Target engagement [5]: demonstrated | Collagen content [6]: reduced | Dermal thickening [6]: reversed | Myofibroblast differentiation [6]: significantly inhibited

Form after slurry (direction of transformation) ([7]; 1-Pentanol, 60° C.): Form 2 | Form after slurry (direction of transformation) ([7]; 1-Pentanol, 70° C.): Form 2 | Form after slurry (direction of transformation) ([7]; MEK, 40° C.): Form 1 | Form after slurry (direction of transformation) ([7]; MEK, 50° C.): Form 1 | Form after slurry (direction of transformation) ([7]; MEK, 60° C.): Form 2 | Form after slurry (direction of transformation) ([7]; MEK, 70° C.): Form 2 | Form after slurry (direction of transformation) ([7]; Methanol, 40° C.): Form 1 | Form after slurry (direction of transformation) ([7]; Methanol, 50° C.): Form 1
SMILES: COc1ccc(C(=O)NC2(C(=O)O)Cc3ccccc3C2)cc1OCCc1cccc(C)c1 [mixture of Form 1 and Form 2]

solubility at 24 h ([3]; aqueous buffer, thermodynamic from solid, read-out: Solubility, concentration (equilibrium)): 57 µg/mL (≈ 128 µM) | 24 hour solubility, greater than Form 1 by [3]: more than 30% | Final form after slurry ([1]; Ethyl Acetate): Form 2 | Final form after slurry ([1]; MEK): Form 1 | Final form after slurry ([1]; Methanol): Form 2 | Final form after slurry ([1]; Methyl THF): Form 2
SMILES: COc1ccc(C(=O)NC2(C(=O)O)Cc3ccccc3C2)cc1OCCc1cccc(C)c1 [Form 2, 2-(4-methoxy-3-(3-methylphenethoxy)benzamido)-2,3-dihydro-1H-indene-2-carboxylic acid]

Equilibrium solubility at 24 hours compared with Form 1 [3]: more than double | Solubility, concentration (equilibrium) [3]: 102 µg/mL (≈ 229 µM)
SMILES: COc1ccc(C(=O)NC2(C(=O)O)Cc3ccccc3C2)cc1OCCc1cccc(C)c1 [Form 4, 2-(4-methoxy-3-(3-methylphenethoxy)benzamido)-2,3-dihydro-1H-indene-2-carboxylic acid]
